What was measured:
[1] = target: T1, CBP-O(ΔN-term), GFP-tagged (Plasmodium berghei, UniProt A0A509AL17); experiment: cGMP-agarose pull-down from schizont lysate, anti-GFP western blot; type: biochemical; settings: ligand immobilised as 8-AET-cGMP-Agarose; Hepes pH […]°C, […] h
T1 construct: gene PBANKA_1025300; endogenous locus edited: residues 1-1694 deleted, CNB1-4/X kept, GFP tag; P. berghei schizont lysate

CNB3 of PbCBP-O (PbCNB3) = target: T2, CNB3 of PbCBP-O (PbCNB3) (Plasmodium berghei, UniProt A0A509AL17); experiment: cGMP-agarose pull-down, anti-His western blot; type: binding; settings: ligand immobilised through position […] as 8-AET-cGMP-Agarose (BioLog); E. coli lysate, Hepes pH […]°C, […] h
T2 construct: gene PBANKA_1025300; N-terminal 6xHis, pET28a, E. coli Rosetta DE3, soluble lysate

## Nc1nc2c(ncn2[C@@H]2O[C@@H]3COP(=O)(O)O[C@H]3[C@H]2O)c(=O)[nH]1 [cGMP]
[1]
  cGMP-agarose pull-down from schizont lysate, anti-GFP western blot: the N-term mutant retained cyclic nucleotide binding activity (Fig 6D)
CNB3 of PbCBP-O (PbCNB3)
  cGMP-agarose pull-down, anti-His western blot: CNB3 showed affinity for both cAMP and cGMP (Fig 6C)

— article PMC12422582, “A divergent cyclic nucleotide binding protein promotes Plasmodium ookinete infection of the mosquito” (PLOS Pathogens, 2025)
